The results in this text go back to patent publication US20140296216A1, “PYRIMIDO[4,5-D]PYRIMIDINYL COMPOUNDS, PHARMACEUTICAL COMPOSITIONS AND USES THEREOF” (GUANGZHOU INSTITUTE OF BIOMEDICINE AND HEALTH, CHINESE …, priority 2011, published 2014).

One test deals with EGFRWT (Homo sapiens, UniProt P00533). The test can be described thus: In vitro enzymatic activity assay (Z'-LYTE), wild type EGFR. The settings on record: Z'-LYTE FRET peptide assay; read-out: EGFRWT kinase activity (IC50). It counts as biochemical. An excerpt:
(§1) In vitro enzymatic activity assay: using Z′-LYTE™ technology (detect fluorescence, coupled-enzyme format, based on the differential sensitivity of phosphorylated and non-phosphorylated peptides to proteolytic cleavage), based on FRET, using Z′ LYTE™ FRET peptide substrate, detect the activity of compounds against enzymatic. […] After one hour, site specific protease which can recognize and cleaves non-phosphorylated FRET-peptide. After another hour, using an excitation wavelength of 400 nm excites, then detect the […] at 445 nm and 520 nm.

A further test concerns the target T1, EGFR T790M kinase (Homo sapiens, UniProt P00533, T790M).
T1 construct: purchased invitrogen PV4803
The test can be described thus: In vitro enzymatic activity assay (Z'-LYTE), EGFR T790M. The format is biochemical. The settings on record: Z'-LYTE FRET peptide assay; read-out: EGFRT790M kinase activity (IC50).
From the text: as §1

A further test concerns the target EGFRL858R (Homo sapiens, UniProt P00533, L858R). The experiment in a line: In vitro enzymatic activity assay (Z'-LYTE), EGFR L858R. The format is biochemical. The note with it: Z'-LYTE FRET peptide assay; read-out: EGFRL858R kinase activity (IC50).
From the text: as §1

For a further test, the target named is EGFRL861Q (Homo sapiens, UniProt P00533, L861Q). The experiment in a line: In vitro enzymatic activity assay (Z'-LYTE), EGFR L861Q. It counts as biochemical. The note with it: Z'-LYTE FRET peptide assay; read-out: EGFRL861Q kinase activity (IC50).
Sequence of EGFRL861Q (P00533 25-1210 L861Q): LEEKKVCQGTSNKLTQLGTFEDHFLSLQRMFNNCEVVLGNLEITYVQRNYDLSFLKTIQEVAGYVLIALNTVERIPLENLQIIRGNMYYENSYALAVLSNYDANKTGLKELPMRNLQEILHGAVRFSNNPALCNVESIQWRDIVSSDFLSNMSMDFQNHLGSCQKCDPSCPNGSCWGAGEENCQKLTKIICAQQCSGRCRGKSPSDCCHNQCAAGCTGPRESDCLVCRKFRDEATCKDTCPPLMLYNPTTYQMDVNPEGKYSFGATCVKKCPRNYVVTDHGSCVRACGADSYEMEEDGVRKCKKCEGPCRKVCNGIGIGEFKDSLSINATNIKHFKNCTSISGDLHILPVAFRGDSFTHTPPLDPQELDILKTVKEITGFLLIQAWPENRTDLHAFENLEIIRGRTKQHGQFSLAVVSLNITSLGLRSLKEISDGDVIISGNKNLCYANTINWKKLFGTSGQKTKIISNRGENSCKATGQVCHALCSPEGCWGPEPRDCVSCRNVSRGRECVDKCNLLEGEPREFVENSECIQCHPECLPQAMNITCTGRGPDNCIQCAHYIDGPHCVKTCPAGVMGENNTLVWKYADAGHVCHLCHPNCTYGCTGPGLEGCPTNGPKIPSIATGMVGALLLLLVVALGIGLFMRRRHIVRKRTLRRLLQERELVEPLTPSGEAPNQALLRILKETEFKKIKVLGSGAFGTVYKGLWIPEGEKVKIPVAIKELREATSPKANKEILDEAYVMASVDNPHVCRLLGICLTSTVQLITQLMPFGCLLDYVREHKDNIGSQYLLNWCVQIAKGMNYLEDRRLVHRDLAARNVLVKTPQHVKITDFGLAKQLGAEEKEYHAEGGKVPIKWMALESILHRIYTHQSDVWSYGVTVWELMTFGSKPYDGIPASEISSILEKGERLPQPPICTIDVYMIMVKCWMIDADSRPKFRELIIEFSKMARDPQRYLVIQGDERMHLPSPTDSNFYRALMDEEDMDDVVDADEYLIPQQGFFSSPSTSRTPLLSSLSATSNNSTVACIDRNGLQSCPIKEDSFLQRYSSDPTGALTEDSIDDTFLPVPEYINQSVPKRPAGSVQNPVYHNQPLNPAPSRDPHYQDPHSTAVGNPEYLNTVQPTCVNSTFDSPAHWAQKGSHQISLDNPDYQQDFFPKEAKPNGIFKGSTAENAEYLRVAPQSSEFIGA
From the text: as §1

A further test deals with EGFRL858R + T790M (Homo sapiens, UniProt P00533, L858R/T790M). The test can be described thus: In vitro enzymatic activity assay (Z'-LYTE), EGFR L858R + T790M. It counts as biochemical. The note with it: Z'-LYTE FRET peptide assay; read-out: EGFRL858R + T790M kinase activity (IC50).
From the text: as §1

The test system of test [1] is H1975 (lung cancer cells, EGFR L858R&T790M). The experiment in a line: Cell proliferation by MTT, H1975. It counts as cell-based. The note with it: Homo sapiens, NCI-H1975, read-out: H1975 50% inhibitory concentration (IC50), 72 h.
In test [2] the test system is HCC827 (lung cancer cells, EGFR E746-A750 deletion). The test can be described thus: Cell proliferation by MTT, HCC827. It counts as cell-based. The note with it: Homo sapiens, HCC827, read-out: HCC827 50% inhibitory concentration (IC50), 72 h.
Test [3] concerns A431 (Human epidermal carcinoma, EGFR high expression). The experiment in a line: Cell proliferation by MTT, A431. The settings on record: A-431, read-out: A431 50% inhibitory concentration (IC50), 72 h. It counts as cell-based.
Test [4] deals with NCI-H820 (lung cancer cells). The test can be described thus: Cell proliferation by MTT, NCI-H820. The settings on record: NCI-H820, read-out: NCI-H820 50% inhibitory concentration (IC50), 72 h. The format is cell-based.

Each structure is given as a SMILES string. Some results are limits rather than exact numbers.

T1 sequence (P00533 25-1210 T790M): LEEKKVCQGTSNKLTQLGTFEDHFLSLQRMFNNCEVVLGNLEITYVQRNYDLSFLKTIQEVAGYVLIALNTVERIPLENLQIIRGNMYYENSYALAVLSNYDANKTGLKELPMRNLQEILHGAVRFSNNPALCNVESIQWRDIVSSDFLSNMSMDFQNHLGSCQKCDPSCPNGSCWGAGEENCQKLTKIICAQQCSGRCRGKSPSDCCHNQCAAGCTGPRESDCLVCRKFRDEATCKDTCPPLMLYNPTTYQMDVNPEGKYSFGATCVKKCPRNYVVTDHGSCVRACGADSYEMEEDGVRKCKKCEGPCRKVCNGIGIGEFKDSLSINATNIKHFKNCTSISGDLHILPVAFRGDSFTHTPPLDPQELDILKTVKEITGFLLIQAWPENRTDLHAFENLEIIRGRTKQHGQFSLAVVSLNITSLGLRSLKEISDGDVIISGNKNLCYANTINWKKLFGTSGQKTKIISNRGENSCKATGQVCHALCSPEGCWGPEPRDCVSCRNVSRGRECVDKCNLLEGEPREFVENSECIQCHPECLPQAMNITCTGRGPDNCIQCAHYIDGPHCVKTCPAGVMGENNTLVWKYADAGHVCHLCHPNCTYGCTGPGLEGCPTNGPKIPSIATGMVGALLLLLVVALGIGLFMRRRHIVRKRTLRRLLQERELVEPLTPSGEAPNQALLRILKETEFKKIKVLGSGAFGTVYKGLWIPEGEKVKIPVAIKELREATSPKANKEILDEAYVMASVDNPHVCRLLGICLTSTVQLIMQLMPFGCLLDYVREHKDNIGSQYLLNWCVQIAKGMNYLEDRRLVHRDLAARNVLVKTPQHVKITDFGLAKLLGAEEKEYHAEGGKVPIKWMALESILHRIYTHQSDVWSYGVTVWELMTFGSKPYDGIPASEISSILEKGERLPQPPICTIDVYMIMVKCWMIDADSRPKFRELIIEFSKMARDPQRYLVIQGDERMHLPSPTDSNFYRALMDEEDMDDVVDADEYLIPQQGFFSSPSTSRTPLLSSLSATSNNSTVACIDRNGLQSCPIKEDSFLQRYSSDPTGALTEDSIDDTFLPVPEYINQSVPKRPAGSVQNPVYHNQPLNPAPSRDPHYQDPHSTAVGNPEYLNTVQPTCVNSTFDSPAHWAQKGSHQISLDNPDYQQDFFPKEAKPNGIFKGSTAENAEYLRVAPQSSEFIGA
Sequence of EGFRL858R (P00533 25-1210 L858R): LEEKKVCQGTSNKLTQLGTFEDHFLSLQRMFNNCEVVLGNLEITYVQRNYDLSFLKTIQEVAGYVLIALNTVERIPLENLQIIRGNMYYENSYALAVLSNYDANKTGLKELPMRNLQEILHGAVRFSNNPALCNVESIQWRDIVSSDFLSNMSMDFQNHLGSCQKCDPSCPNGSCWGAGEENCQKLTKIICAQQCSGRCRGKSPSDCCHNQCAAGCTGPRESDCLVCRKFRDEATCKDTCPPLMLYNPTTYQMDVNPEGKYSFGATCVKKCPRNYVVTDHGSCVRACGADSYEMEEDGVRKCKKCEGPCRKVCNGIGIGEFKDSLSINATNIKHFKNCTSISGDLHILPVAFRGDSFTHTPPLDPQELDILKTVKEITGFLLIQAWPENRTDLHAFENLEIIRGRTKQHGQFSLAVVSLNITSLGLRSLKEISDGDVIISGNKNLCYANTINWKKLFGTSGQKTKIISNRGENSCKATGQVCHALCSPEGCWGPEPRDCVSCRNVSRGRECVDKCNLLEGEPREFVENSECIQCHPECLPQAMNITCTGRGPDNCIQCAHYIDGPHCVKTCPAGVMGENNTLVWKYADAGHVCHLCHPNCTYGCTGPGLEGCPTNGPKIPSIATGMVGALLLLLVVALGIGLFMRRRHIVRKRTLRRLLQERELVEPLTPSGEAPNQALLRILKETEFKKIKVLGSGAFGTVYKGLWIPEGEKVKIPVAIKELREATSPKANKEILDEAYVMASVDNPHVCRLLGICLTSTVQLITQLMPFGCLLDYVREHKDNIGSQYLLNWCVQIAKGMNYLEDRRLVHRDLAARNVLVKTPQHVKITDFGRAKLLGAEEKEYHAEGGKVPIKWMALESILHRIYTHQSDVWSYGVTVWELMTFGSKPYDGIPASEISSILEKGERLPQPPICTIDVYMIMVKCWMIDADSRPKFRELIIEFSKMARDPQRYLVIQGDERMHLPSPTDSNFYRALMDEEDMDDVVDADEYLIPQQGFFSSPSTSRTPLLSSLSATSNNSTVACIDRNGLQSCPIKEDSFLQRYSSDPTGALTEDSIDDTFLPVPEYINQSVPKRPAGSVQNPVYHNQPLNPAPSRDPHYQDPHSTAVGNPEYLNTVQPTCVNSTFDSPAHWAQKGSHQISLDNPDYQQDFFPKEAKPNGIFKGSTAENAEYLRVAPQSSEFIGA
Sequence of EGFRWT (P00533 25-1210): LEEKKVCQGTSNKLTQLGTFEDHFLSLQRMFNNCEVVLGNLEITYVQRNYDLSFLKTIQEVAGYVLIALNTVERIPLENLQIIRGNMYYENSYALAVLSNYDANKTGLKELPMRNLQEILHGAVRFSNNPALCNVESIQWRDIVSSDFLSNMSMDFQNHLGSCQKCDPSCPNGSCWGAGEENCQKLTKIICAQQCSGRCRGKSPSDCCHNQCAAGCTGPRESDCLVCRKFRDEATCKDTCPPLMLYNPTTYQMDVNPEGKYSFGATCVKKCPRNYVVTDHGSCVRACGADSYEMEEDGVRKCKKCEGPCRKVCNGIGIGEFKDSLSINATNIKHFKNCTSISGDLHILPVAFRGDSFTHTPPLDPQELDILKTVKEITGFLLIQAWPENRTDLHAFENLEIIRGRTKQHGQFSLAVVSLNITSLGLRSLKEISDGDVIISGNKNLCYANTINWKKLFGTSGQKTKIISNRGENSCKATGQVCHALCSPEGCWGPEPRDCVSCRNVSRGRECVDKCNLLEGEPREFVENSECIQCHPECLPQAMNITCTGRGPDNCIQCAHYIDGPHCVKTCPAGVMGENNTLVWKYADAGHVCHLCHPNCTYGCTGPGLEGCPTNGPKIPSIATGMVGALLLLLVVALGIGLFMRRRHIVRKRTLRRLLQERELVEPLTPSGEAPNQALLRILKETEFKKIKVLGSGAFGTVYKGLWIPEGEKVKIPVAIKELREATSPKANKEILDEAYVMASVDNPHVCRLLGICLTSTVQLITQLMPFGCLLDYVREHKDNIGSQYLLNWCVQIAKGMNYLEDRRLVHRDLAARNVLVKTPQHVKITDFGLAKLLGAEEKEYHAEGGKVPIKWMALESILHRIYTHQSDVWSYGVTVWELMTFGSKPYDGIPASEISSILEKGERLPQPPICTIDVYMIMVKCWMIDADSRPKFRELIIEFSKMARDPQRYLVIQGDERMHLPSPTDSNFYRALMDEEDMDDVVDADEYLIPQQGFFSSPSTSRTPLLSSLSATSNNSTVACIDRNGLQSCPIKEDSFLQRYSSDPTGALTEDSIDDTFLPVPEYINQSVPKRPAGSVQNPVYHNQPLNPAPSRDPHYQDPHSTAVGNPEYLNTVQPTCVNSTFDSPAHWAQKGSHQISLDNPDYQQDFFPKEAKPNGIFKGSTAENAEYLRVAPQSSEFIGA

As to `C=CC(=O)Nc1cccc(N2C(=O)N(C)Cc3cnc(Nc4ccc(N5CCOCC5)cc4OC)nc32)c1` [C-EGF08, N-(3-(7-(2-methoxy-4-morpholinophenylamino)-3-methyl-2-oxo-3,4-dihydropyrimido[4,5-d]pyrimidin-1(2H)-yl)phenyl)acrylamide], the IC50 on EGFRWT is 10 to 100 nM; on EGFR T790M kinase it was 10 to 100 nM; at EGFRL858R, 10 to 100 nM; on EGFRL861Q, 10 to 100 nM; on EGFRL858R + T790M, 10 to 100 nM; in test [1], 159 nM. The IC50 was 159 nM in test [2], 21200 nM in test [3] and greater than 100000 nM in test [4].
`C=CC(=O)Nc1cccc(N2C(=O)N(C)Cc3cnc(Nc4ccc(N5CCSCC5)cc4OC)nc32)c1` [C-EGF09, N-(3-(7-(2-methoxy-4-thiomorpholinophenylamino)-3-methyl-2-oxo-3,4-dihydropyrimido[4,5-d]pyrimidin-1(2H)-yl)phenyl)acrylamide]: the IC50 is 10 to 100 nM at EGFRWT; 10 to 100 nM on EGFR T790M kinase; 10 to 100 nM on EGFRL858R; no more than 10 nM on EGFRL861Q; 10 to 100 nM on EGFRL858R + T790M; 379 nM in test [1]. For the same molecule, the figures for the IC50 in test [2], in [3] and in test [4] were 212 nM, 10700 nM and greater than 100000 nM, respectively.
Turning to `C=CC(=O)Nc1cccc(N2C(=O)N(C)Cc3cnc(Nc4ccccc4)nc32)c1` [C-EGF10, N-(3-(3-methyl-2-oxo-7-(phenylamino)-3,4-dihydropyrimido[4,5-d]pyrimidin-1(2H)-yl)phenyl)acrylamide], the IC50 on EGFRWT was no more than 10 nM; at EGFR T790M kinase, no more than 10 nM; at EGFRL858R it was 10 to 100 nM; on EGFRL861Q, 10 to 100 nM; at EGFRL858R + T790M, 10 to 100 nM; in test [1], 213 nM. Also, the IC50 was 28 nM in [2], 1580 nM in test [3] and greater than 100000 nM in test [4].
Turning to `C=CC(=O)Nc1cccc(N2C(=O)N(C)Cc3cnc(Nc4ccc(N5CCCCC5)cc4OC)nc32)c1` [C-EGF11, N-(3-(7-(2-methoxy-4-(piperidin-1-yl)phenylamino)-3-methyl-2-oxo-3,4-dihydropyrimido[4,5-d]pyrimidin-1(2H)-yl)phenyl)acrylamide], the IC50 on EGFRWT was 10 to 100 nM; at EGFR T790M kinase it was 100 to 1000 nM; on EGFRL858R, 10 to 100 nM; on EGFRL861Q it was no more than 10 nM; at EGFRL858R + T790M, 10 to 100 nM; in [1] it was 2560 nM. The IC50 in test [2] is 310 nM; in test [3] it was 17700 nM; in [4], greater than 100000 nM.
On to `C=CC(=O)Nc1cccc(N2C(=O)N(c3cccc4ccccc34)Cc3cnc(Nc4ccc(N5CCN(C)CC5)cc4OC)nc32)c1` [C-EGF28, N-(3-(7-(2-methoxy-4-(4-methylpiperazin-1-yl)phenylamino)-3-(naphthalen-1-yl)-2-oxo-3,4-dihydropyrimido[4,5-d]pyrimidin-1(2H)-yl)phenyl)acrylamide], for which the IC50 at EGFRWT was no more than 10 nM; on EGFR T790M kinase, no more than 10 nM; on EGFRL858R, no more than 10 nM; at EGFRL861Q, no more than 10 nM; at EGFRL858R + T790M, no more than 10 nM; in test [1] it was 30 nM. Also, in [2], the IC50 stood at 6 nM.
Regarding `CCC(=O)Nc1cccc(N2C(=O)N(C)Cc3cnc(Nc4ccc(N5CCN(C)CC5)cc4OC)nc32)c1` [C-EGF34, N-(3-(7-(2-methoxy-4-(4-methylpiperazin-1-yl)phenylamino)-3-methyl-2-oxo-3,4-dihydropyrimido[4,5-d]pyrimidin-1(2H)-yl)phenyl)propionamide], the IC50 at EGFRWT is 1000 to 10000 nM; at EGFR T790M kinase, 1000 to 10000 nM; on EGFRL858R, 1000 to 10000 nM; on EGFRL861Q it was 1000 to 10000 nM; on EGFRL858R + T790M, 1000 to 10000 nM; in test [1], greater than 20000 nM. Besides, the IC50 in [3] was greater than 30000 nM.
